Source: paper PMC9850727, “Benzoxazolone-5-Urea Derivatives as Human Soluble Epoxide Hydrolase (sEH) Inhibitors” (ACS Omega, 2023)
Each block holds one compound with its values, some of them ahead of it.

Experiments:
human recombinant sEH = target: T1, human recombinant sEH (Homo sapiens, UniProt P34913); assay: Cell-free sEH activity assay (fluorescence-based, PHOME substrate); assay type: biochemical; details: for sEH activity % of control at 1 μM / sEH activity % of control at 10 μM: residual activity; for inhibition at 10 µM: inhibition as stated in text
T1 construct: made in house; host or cells: Sf9 cells infected with recombinant baculovirus (from Dr. Bruce Hammock, UC Davis)
T1 sequence (P34913 1-555): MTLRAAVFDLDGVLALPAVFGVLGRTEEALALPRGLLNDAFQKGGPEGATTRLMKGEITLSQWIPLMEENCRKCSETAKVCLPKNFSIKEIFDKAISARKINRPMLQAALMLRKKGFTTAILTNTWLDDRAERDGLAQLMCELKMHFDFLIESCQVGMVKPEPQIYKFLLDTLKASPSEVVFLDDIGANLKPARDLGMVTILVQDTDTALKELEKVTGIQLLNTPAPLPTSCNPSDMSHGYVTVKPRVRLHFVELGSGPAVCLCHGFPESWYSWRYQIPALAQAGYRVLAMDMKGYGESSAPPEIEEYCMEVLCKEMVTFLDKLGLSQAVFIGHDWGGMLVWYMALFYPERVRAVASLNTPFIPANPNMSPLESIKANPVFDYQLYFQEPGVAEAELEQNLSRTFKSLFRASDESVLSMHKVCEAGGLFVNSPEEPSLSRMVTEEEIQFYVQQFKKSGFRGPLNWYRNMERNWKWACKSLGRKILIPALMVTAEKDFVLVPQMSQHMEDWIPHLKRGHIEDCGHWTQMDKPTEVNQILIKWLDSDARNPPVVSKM
Source text: Inspired by the reported crystallographic screening studies,[12],[13],[15] a series of aryl amide (12, 15–21) or urea (31–39) derivatives with a benzoxazolone head group were synthesized and assessed for inhibition of human recombinant sEH in a cell-free activity assay[27] (Tables 1 and 2). […] Consequently, compounds in which the amide group is attached to the benzoxazolone ring through NH could outperform their direct reversed analogues by more favorable interactions in the central pocket of sEH. In addition, simple methylation of the benzoxazolone NH in 17–18 engendered noticeable differences in sEH inhibition relative to the unmethylated counterparts 15–16, implying that a free NH with H-bond donor property at this location is also important for the observed potency. Subsequently, the positioning of the amide group at the 5-position of the benzoxazolone ring also retained the inhibitory activity.
Human recombinant sEH was expressed and purified as published before.[31] Briefly, Sf9 cells were infected with a recombinant baculovirus (obtained from Dr. Bruce Hammock, University of California, Davis, CA). Following 72 h of transfection, the cells were centrifuged and then sonicated (3 × 10 s at 4 °C) in lysis buffer comprising glycerol (10%), NaHPO4 (50 mM, pH 8), leupeptin (10 μg/mL), NaCl (300 mM), phenylmethanesulfonyl fluoride (1 mM), EDTA (1 mM), and soybean trypsin inhibitor (60 μg/mL). After centrifugation at 100,000g (60 min, 4 °C), the obtained supernatants were subjected to a benzylthio-sepharose-affinity chromatography and eluted with 4-fluorochalcone oxide in PBS containing 1 mM DTT and 1 mM EDTA for purification of sEH. The enzyme was dialyzed and concentrated (Millipore Amicon-Ultra-15 centrifugal filter), and the solution was further assayed for total protein content by a protein detection kit (Bio-Rad Laboratories, Munich, Germany). The epoxide hydrolase activity was measured using a fluorescence-based assay, as reported before.[27] In brief, sEH was diluted in Tris buffer (25 mM, pH 7) containing BSA (0.1 mg/mL) to a suitable enzyme concentration and pretreated with test compounds or 0.1% DMSO as vehicle for 10 min at room temperature. To start the reaction, 50 μM of the PHOME substrate (3-phenyl-cyano(6-methoxy-2-naphthalenyl)methyl ester-2-oxiraneacetic acid), a nonfluorescent compound that is enzymatically converted by sEH into fluorescent 6-methoxy-naphtaldehyde, was added at RT. The reaction was stopped by addition of ZnSO4 (200 mM) after 60 min, and fluorescence was measured (λem 465 nm, λex 330 nm) by employing a NOVOstar microplate reader (BMG LABTECH GmbH, Ortenberg, Germany). If required, the potential fluorescence of test compounds was subtracted from the readout.

[1] = mean ± SEM, n = 3, benzoxazolone-amides (Table 1)
[2] = cell-free assay, benzoxazolone-amides (Table 1)
[3] = mean ± SEM, n = 3, benzoxazolone-ureas (Table 2)
[4] = cell-free assay, mean ± SEM, n = 3, benzoxazolone-ureas (Table 2)

SMILES: O=C(NCc1ccc(F)cc1)Nc1ccc2oc(=O)[nH]c2c1 [Compound 35, 1-[(4-Fluorophenyl)methyl]-3-(2-oxo-2,3-dihydro-1,3-benzoxazol-5-yl)urea]
sEH activity % of control at 1 μM (human recombinant sEH; [3]): 62.8 ± 3.3 % of control | sEH activity % of control at 10 μM (human recombinant sEH; [3]): 5.2 ± 3.6 % of control | IC50 (human recombinant sEH; [4]): 0.57 ± 0.015 µM | melting point: 249.3 °C (dec.)

SMILES: O=C(NCc1ccccc1C(F)(F)F)Nc1ccc2oc(=O)[nH]c2c1 [Compound 32, 3-(2-Oxo-2,3-dihydro-1,3-benzoxazol-5-yl)-1-{[2-(trifluoromethyl)phenyl]methyl}urea]
sEH activity % of control at 1 μM (human recombinant sEH; [3]): 7.1 ± 5.8 % of control | sEH activity % of control at 10 μM (human recombinant sEH; [3]): 4.7 ± 8.0 % of control | IC50 (human recombinant sEH; [4]): 0.002 ± 0.00042 µM | melting point: 237.8 °C (dec.)

SMILES: Cn1c(=O)oc2cc(NC(=O)c3ccc(OCc4ccccc4)cc3)ccc21 [Compound 17, 4-(Benzyloxy)-N-(3-methyl-2-oxo-2,3-dihydro-1,3-benzoxazol-6-yl)benzamide]
sEH activity % of control at 1 μM (human recombinant sEH; [1]): 105.8 ± 15.9 % of control | sEH activity % of control at 10 μM (human recombinant sEH; [1]): 115.1 ± 4.9 % of control | IC50 (human recombinant sEH; [2]): > 10 µM | melting point: 251.8 to 253.7 °C

SMILES: O=C(NCc1cccc(Cl)c1)Nc1ccc2oc(=O)[nH]c2c1 [Compound 34, 1-[(3-Chlorophenyl)methyl]-3-(2-oxo-2,3-dihydro-1,3-benzoxazol-5-yl)urea]
sEH activity % of control at 1 μM (human recombinant sEH; [3]): 18.6 ± 5.1 % of control | sEH activity % of control at 10 μM (human recombinant sEH; [3]): 7.5 ± 3.4 % of control | IC50 (human recombinant sEH; [4]): 0.08 ± 0.023 µM | melting point: 244.5 °C (dec.)

SMILES: O=C(NCc1cccc(F)c1F)Nc1ccc2oc(=O)[nH]c2c1 [Compound 39, 1-[(2,3-Difluorophenyl)methyl]-3-(2-oxo-2,3-dihydro-1,3-benzoxazol-5-yl)urea]
sEH activity % of control at 1 μM (human recombinant sEH; [3]): 14.2 ± 2.7 % of control | sEH activity % of control at 10 μM (human recombinant sEH; [3]): 0.8 ± 2.0 % of control | IC50 (human recombinant sEH; [4]): 0.033 ± 0.01 µM | melting point: 259.9 °C (dec.)

SMILES: O=C(NCc1ccccc1Cl)Nc1ccc2oc(=O)[nH]c2c1 [Compound 31, 1-[(2-Chlorophenyl)methyl]-3-(2-oxo-2,3-dihydro-1,3-benzoxazol-5-yl)urea]
sEH activity % of control at 1 μM (human recombinant sEH; [3]): 3.1 ± 6.2 % of control | sEH activity % of control at 10 μM (human recombinant sEH; [3]): 5.8 ± 6.2 % of control | IC50 (human recombinant sEH; [4]): 0.0099 ± 0.0029 µM | melting point: 242.5 °C (dec.)

SMILES: O=C(NCc1ccc(C(F)(F)F)cc1)Nc1ccc2oc(=O)[nH]c2c1 [Compound 37, 3-(2-Oxo-2,3-dihydro-1,3-benzoxazol-5-yl)-1-{[4-(trifluoromethyl)phenyl]methyl}urea]
sEH activity % of control at 1 μM (human recombinant sEH; [3]): 12.3 ± 2.5 % of control | sEH activity % of control at 10 μM (human recombinant sEH; [3]): 1.1 ± 1.8 % of control | IC50 (human recombinant sEH; [4]): 0.053 ± 0.008 µM | melting point: 213.6 °C (dec.)

SMILES: O=C(NCc1ccc(Cl)cc1)Nc1ccc2oc(=O)[nH]c2c1 [Compound 36, 1-[(4-Chlorophenyl)methyl]-3-(2-oxo-2,3-dihydro-1,3-benzoxazol-5-yl)urea]
sEH activity % of control at 1 μM (human recombinant sEH; [3]): 18.6 ± 2.6 % of control | sEH activity % of control at 10 μM (human recombinant sEH; [3]): 1.9 ± 2.4 % of control | IC50 (human recombinant sEH; [4]): 0.12 ± 0.02 µM | melting point: 251 °C (dec.)

The next lines start with the values.

sEH activity % of control at 1 μM (human recombinant sEH; [1]): 91.0 ± 6.1 % of control | sEH activity % of control at 10 μM (human recombinant sEH; [1]): 84.4 ± 3.8 % of control | sEH inhibition (in words) (human recombinant sEH; cell-free assay): devoid of sEH inhibition | IC50 (human recombinant sEH; [2]): > 10 µM | melting point: > 300 °C
SMILES: O=C(Nc1ccc(OCc2ccccc2)cc1)c1ccc2[nH]c(=O)oc2c1 [Compound 12, N-[4-(Benzyloxy)phenyl]-2-oxo-2,3-dihydro-1,3-benzoxazole-6-carboxamide]

sEH activity % of control at 1 μM (human recombinant sEH; [1]): 83.7 ± 9.8 % of control | sEH activity % of control at 10 μM (human recombinant sEH; [1]): 91.5 ± 2.8 % of control | IC50 (human recombinant sEH; [2]): > 10 µM | melting point: 229.1 to 231.1 °C
SMILES: Cn1c(=O)oc2cc(NC(=O)c3ccc(Oc4ccccc4)cc3)ccc21 [Compound 18, N-(3-Methyl-2-oxo-2,3-dihydro-1,3-benzoxazol-6-yl)-4-phenoxybenzamide]

sEH activity % of control at 1 μM (human recombinant sEH; [1]): 47.4 ± 7.1 % of control | sEH activity % of control at 10 μM (human recombinant sEH; [1]): 14.4 ± 6.8 % of control | IC50 (human recombinant sEH; [2]): ~1 µM | melting point: 231 to 233 °C
SMILES: O=C(Nc1ccc2oc(=O)[nH]c2c1)c1ccc(Oc2ccccc2)cc1 [Compound 21, N-(2-Oxo-2,3-dihydro-1,3-benzoxazol-5-yl)-4-phenoxybenzamide]

sEH activity % of control at 1 μM (human recombinant sEH; [1]): 67.8 ± 10.8 % of control | inhibition at 10 µM (human recombinant sEH): 70% | sEH activity % of control at 10 μM (human recombinant sEH; [1]): 28.9 ± 8.1 % of control | IC50 (human recombinant sEH; [2]): < 10 µM | melting point: 256.6 to 259 °C
SMILES: O=C(Nc1ccc2[nH]c(=O)oc2c1)c1ccc(OCc2ccccc2)cc1 [Compound 15, 4-(Benzyloxy)-N-(2-oxo-2,3-dihydro-1,3-benzoxazol-6-yl)benzamide]

sEH activity % of control at 1 μM (human recombinant sEH; [1]): 68.2 ± 6.6 % of control | sEH activity % of control at 10 μM (human recombinant sEH; [1]): 30.0 ± 10.5 % of control | IC50 (human recombinant sEH; [2]): < 10 µM | melting point: 260.7 to 262.8 °C
SMILES: O=C(Nc1ccc2oc(=O)[nH]c2c1)c1ccc(OCc2ccccc2)cc1 [Compound 20, 4-(Benzyloxy)-N-(2-oxo-2,3-dihydro-1,3-benzoxazol-5-yl)benzamide]

sEH activity % of control at 1 μM (human recombinant sEH; [1]): 49.8 ± 6.3 % of control | inhibition at 10 µM (human recombinant sEH): 85% | sEH activity % of control at 10 μM (human recombinant sEH; [1]): 15.2 ± 5.9 % of control | IC50 (human recombinant sEH; [2]): ~1 µM | melting point: 231.8 to 233 °C
SMILES: O=C(Nc1ccc2[nH]c(=O)oc2c1)c1ccc(Oc2ccccc2)cc1 [Compound 16, N-(2-Oxo-2,3-dihydro-1,3-benzoxazol-6-yl)-4-phenoxybenzamide]
